Read-outs that look alike come from different tables or passages of the source. One block for each compound: values may come before it. Square brackets hold non-standard residues; d marks the D form. Peptide text beside a SMILES is read from it. dTrp(2-Me) = Cc1[nH]c2ccccc2c1C[C@@H](N)C(=O)O; Trp(2-Me) = Cc1[nH]c2ccccc2c1C[C@H](N)C(=O)O; GABA = NCCCC(=O)O
How the values were obtained:
[1] = tested on: serum growth hormone and cortisol; assay: Oral capsule in healthy subjects, serum growth hormone and cortisol; assay type: in vivo, human; details: 20 mg capsule, 5 healthy subjects
Method: A capsule containing 20 mg of the peptide of Example 18 was orally administered to 5 healthy subjects (3 men and 2 women, ages 30 to 66) and serum growth hormone and cortisol levels were measured at various times after administration.

Growth Hormone release = assay: GH release in 10-day old rats, s.c. 160 μg/kg; assay type: in vivo; details: 160 μg/kg s.c.
Method: The peptides of Examples 4 and 5 were tested as Growth Hormone releasers in rats. GH released in a series of seven 10-day old rats, injected subcutaneously with a standard dose of 160 μg/kg and sacrificed 15 minutes after the injection.

growth hormone secretion = assay: Growth hormone secretion in young healthy male volunteers; assay type: in vivo, human; details: young (20-30 years old) healthy male volunteers, various dosages, FIGS. 18-20
Method: The effects of HEXARELIN on growth hormone secretion in young (20-30 years old) healthy male volunteers were measured after the administration of various dosages.

Human heart tissue = assay: Inhibition of 125I-Tyr-Ala-HEXARELIN binding to human heart tissue membranes
Method: (§1) Tissue membranes (0.1 mg protein) obtained from the heart and hypothalamus of two different adult subjects were incubated in triplicate with a subsaturating concentration (34 pM, about 48,000 cpm, for heart tissue and 42 pM, about 60,000 cpm for hypothalamus tissue) of ^125 I-Tyr-Ala-HEXARELIN for 40 min at 0° C. in the absence and in the presence of increasing concentrations of the indicated unlabelled peptides. The value in parentheses represents the % of inhibition of ^125 I-Tyr-Ala-HEXARELIN specifically bound.
(§2) The specific binding of ^125 I-Tyr-Ala-HEXARELIN/0.1 mg membrane protein is expressed as a percent of total radioactivity added.

GH release [2] = assay: Plasma GH after s.c. administration in male rats anesthetized with ketamine and xilazine; assay type: in vivo
Method: (§3) Male Sprague Dawley rats (Charles River, Calco, Italy) of 2-3 months of age were used. Rats were housed at 22 +2° C., with lighting cycle of 14 h light: 10 h dark (lights on from 06.00 to 20.00 h), at least 10 days before starting the experiments. A standard dry diet and water were available ad libitum.
Between 09.00-10.00 h rats were anesthetized with ketamine (58 mg/kg, Inoketam, VIRBAC, Milano) and xilazine (12 mg/kg, Rompun, Bayer, Milano). Thirty minutes later, a blood sample ([…]) was withdrawn from the exposed jugular vein, peptides were injected intravenously or subcutaneously, and further blood samples were collected 10, 20 and 30 minutes later.
(§4) Medium and plasma GH was measured by radioimmunoassay using materials supplied by the NIADDK Bethesda, Md. Values were expressed in term of NIASSK-rat-GH-RP-2 standard (potency 2 IU/ml), as ng/ml of medium or plasma.
(§5) The minimum detectable value of rat was 1.0 ng/ml; intra-assay variability was 6%. To avoid inter-assay variation, samples from each experiment were assayed simultaneously.

[3] = tested on: Human hypothalamus tissue; assay: Inhibition of 125I-Tyr-Ala-HEXARELIN binding to human hypothalamus tissue membranes
Method: as §1, §2

rat = assay: Acute cardiovascular toxicity in the rat, single i.v. dose, mortality; assay type: in vivo; details: for Dead rats/Total No of rats per group: observed up to 4 hours
Method: These two peptides were also tested for acute cardiovascular toxicity in the rat.
Dosages were calculated on the basis of the declared peptide content in each product, as specified below:
A single dose of HEXARELIN or GHRP-6 was administered to rats in different calendar dates in such a way that each group/dose should be treated in two subsequent days.
For each compound, appropriate amounts of solutions in 0.9% NaCl for injection were prepared just before treatment at the suitable concentrations. The solutions were sterilized by filtration (Millipore filter, pore size 0.22 μm). Owing to the type of the study (acute study) in which formulates were administered just after preparation, stability checks were not performed. Concentration checks were also not performed. The volume of solution injected was maintained constant at 1 ml/Kg.
The intravenous injections were done as a single dose in one vein of the tail with an appropriately gauged sterile, disposable, plastic syringe. The injection rate was about 0.1 ml/sec.
Periodical observations were made up to 4 hours after treatment. Abnormality and mortality were recorded. Body weight was recorded once during pre-trial and on the administration day to calculate the volumes to be injected.

GH release [4] = assay: Released GH in ten day-rats, s.c. (Table 9); assay type: in vivo; details: 300 μg/kg s.c., 15 minutes, GH control 10 to 31 ng/ml depending on experiment
Method: In vivo activity of these compounds was determined in ten day-rats, which were subcutaneously injected (s.c.) with a dose of 300 μg/kg or with different doses in dose-response studies, according to the procedure as described in Deghenghi et. al, Life Sciences 54, 1321 (1994). The released GH was measured 15 minutes following compound administration.

[5] = tested on: pituitary cell monolayers; assay: GH secretion of pituitary cell monolayers incubated with peptides; assay type: cell-based, rats; details: 2 hours incubation
Method: as §3
Pituitary tissue used for cell dissociation included only the anterior lobe. Briefly, pituitary glands were collected in sterile F-10 medium and after cutting into small fragments incubated twice (30 minutes each) at 37° C. in F-10 medium containing 6% fetal calf serum and collagenase (2.5 mg/ml) (Boehringer, Mannheim GmbH, Germany). Fragments were then washed in Dulbecco's PBS, Ca^2 + and Mg^2 + free medium and mechanically dissociated. Single cell suspension was planted onto 24-well (2×10^5 cells/well) culture plates. The cells were incubated in F-10 medium supplemented with 10% horse serum, 4% fetal calf serum and gentamycin (25 μg/ml), in a humidified atmosphere of 5% CO2 and 95% air at 37° C.
After 3 days, the medium was removed and the cells washed twice with serum free F-10, then incubated with 1 ml of F-10 containing 0.1% BSA only, or with added various concentrations of synthetic peptides.
After incubation for 2 h at 37° C., media were collected and stored frozen at -20° C. until assayed for measurement of GH content.
as §4, §5

[6] = Hydrophobicity comparison (FIG. 12); assay type: physicochemical
Text: FIG. 12 is a graphical comparison of the hydrophobicity of GHRP-6 and HEXARELIN;

plasma testosterone = details: dog, in vivo, sc
Method: The peptide of Example 3 was formulated in a polymeric PLGA implant in the form of rods which were about 1 cm long and 1 mm in diameter. These implants contained a loading of either 20 or 25% of the peptide (an amount of 7 or 10 mg), and were inserted subcutaneously into in male Beagle dogs which weighed between 10 and 12 kg.

[7] = mean of two subjects, read-out: mean IC50 value
[8] = subject 1, read-out: IC50 value
[9] = subject 2, read-out: IC50 value

cortisol levels [1]: without cortisol stimulation
Compound: Cc1[nH]c2ccccc2c1C[C@H](NC(=O)[C@@H](Cc1c(C)[nH]c2ccccc12)NC(=O)[C@@H](Cc1c(C)[nH]c2ccccc12)NC(=O)CCCN)C(=O)N[C@@H](CCCCN)C(N)=O [Example 18, GAB-D-2-Mrp-D-2-Mrp-2-Mrp-Lys-NH2] (H-[GABA][dTrp(2-Me)][dTrp(2-Me)][Trp(2-Me)]K-NH2)

Compound: Cc1[nH]c2ccccc2c1C[C@@H](NC(=O)[C@@H](N)Cc1cnc[nH]1)C(=O)N[C@@H](C)C(=O)N[C@@H](Cc1c[nH]c2ccccc12)C(=O)N[C@H](Cc1ccccc1)C(=O)N[C@@H](CCCCN)C(N)=O [Example 4, His-D-2-methyl-Trp-Ala-Trp-D-Phe-Lys-NH2] (H-H[dTrp(2-Me)]AW[dF]K-NH2)
activity as Growth Hormone releaser (Growth Hormone release): very active
effect on growth hormone secretion (growth hormone secretion): effective in vivo
inhibition of 125I-Tyr-Ala-HEXARELIN specifically bound (Human heart tissue; 0.1 nM peptide, subject 1): 4%
specific binding of 125I-Tyr-Ala-HEXARELIN (Human heart tissue; 0.1 nM peptide, subject 1): 20.1% of total radioactivity
inhibition of 125I-Tyr-Ala-HEXARELIN specifically bound (Human heart tissue; 0.1 nM peptide, subject 2): 5%
specific binding of 125I-Tyr-Ala-HEXARELIN (Human heart tissue; 0.1 nM peptide, subject 2): 22.8% of total radioactivity
inhibition of 125I-Tyr-Ala-HEXARELIN specifically bound (Human heart tissue; 1 nM peptide, subject 1): 20%
specific binding of 125I-Tyr-Ala-HEXARELIN (Human heart tissue; 1 nM peptide, subject 1): 16.9% of total radioactivity
inhibition of 125I-Tyr-Ala-HEXARELIN specifically bound (Human heart tissue; 1 nM peptide, subject 2): 28%
specific binding of 125I-Tyr-Ala-HEXARELIN (Human heart tissue; 1 nM peptide, subject 2): 17.3% of total radioactivity
inhibition of 125I-Tyr-Ala-HEXARELIN specifically bound (Human heart tissue; 10 nM peptide, subject 1): 51%
specific binding of 125I-Tyr-Ala-HEXARELIN (Human heart tissue; 10 nM peptide, subject 1): 10.4% of total radioactivity
inhibition of 125I-Tyr-Ala-HEXARELIN specifically bound (Human heart tissue; 10 nM peptide, subject 2): 56%
specific binding of 125I-Tyr-Ala-HEXARELIN (Human heart tissue; 10 nM peptide, subject 2): 10.5% of total radioactivity
inhibition of 125I-Tyr-Ala-HEXARELIN specifically bound (Human heart tissue; 100 nM peptide, subject 1): 92%
specific binding of 125I-Tyr-Ala-HEXARELIN (Human heart tissue; 100 nM peptide, subject 1): 1.7% of total radioactivity
inhibition of 125I-Tyr-Ala-HEXARELIN specifically bound (Human heart tissue; 100 nM peptide, subject 2): 90%
specific binding of 125I-Tyr-Ala-HEXARELIN (Human heart tissue; 100 nM peptide, subject 2): 2.4% of total radioactivity
inhibition of 125I-Tyr-Ala-HEXARELIN specifically bound (Human heart tissue; 1000 nM peptide, subject 1): 100%
specific binding of 125I-Tyr-Ala-HEXARELIN (Human heart tissue; 1000 nM peptide, subject 1): 0% of total radioactivity
inhibition of 125I-Tyr-Ala-HEXARELIN specifically bound (Human heart tissue; 1000 nM peptide, subject 2): 100%
specific binding of 125I-Tyr-Ala-HEXARELIN (Human heart tissue; 1000 nM peptide, subject 2): 0% of total radioactivity
IC50 (Human heart tissue; [7]): 9.5 nM
IC50 (Human heart tissue; [8]): 10.6 nM
IC50 (Human heart tissue; [9]): 8.3 nM
plasma GH (GH release [2]; s.c. 600 μg/kg, 30 min): 115.3 ± 19.1 ng/mL
GH-releasing effectiveness compared (GH release [2]; s.c. 150, 300 and 600 μg/kg, 10, 20 and 30 minutes): more effective than GHRP-6 at all the considered times
inhibition of 125I-Tyr-Ala-HEXARELIN specifically bound ([3]; 0.1 nM peptide, subject 1): 3%
specific binding of 125I-Tyr-Ala-HEXARELIN ([3]; 0.1 nM peptide, subject 1): 10.7% of total radioactivity
inhibition of 125I-Tyr-Ala-HEXARELIN specifically bound ([3]; 0.1 nM peptide, subject 2): 4%
specific binding of 125I-Tyr-Ala-HEXARELIN ([3]; 0.1 nM peptide, subject 2): 9.1% of total radioactivity
inhibition of 125I-Tyr-Ala-HEXARELIN specifically bound ([3]; 1 nM peptide, subject 1): 16%
specific binding of 125I-Tyr-Ala-HEXARELIN ([3]; 1 nM peptide, subject 1): 9.6% of total radioactivity
inhibition of 125I-Tyr-Ala-HEXARELIN specifically bound ([3]; 1 nM peptide, subject 2): 19%
specific binding of 125I-Tyr-Ala-HEXARELIN ([3]; 1 nM peptide, subject 2): 7.7% of total radioactivity
inhibition of 125I-Tyr-Ala-HEXARELIN specifically bound ([3]; 10 nM peptide, subject 1): 51%
specific binding of 125I-Tyr-Ala-HEXARELIN ([3]; 10 nM peptide, subject 1): 5.2% of total radioactivity
inhibition of 125I-Tyr-Ala-HEXARELIN specifically bound ([3]; 10 nM peptide, subject 2): 67%
specific binding of 125I-Tyr-Ala-HEXARELIN ([3]; 10 nM peptide, subject 2): 3.1% of total radioactivity
inhibition of 125I-Tyr-Ala-HEXARELIN specifically bound ([3]; 100 nM peptide, subject 1): 89%
specific binding of 125I-Tyr-Ala-HEXARELIN ([3]; 100 nM peptide, subject 1): 1.2% of total radioactivity
inhibition of 125I-Tyr-Ala-HEXARELIN specifically bound ([3]; 100 nM peptide, subject 2): 93%
specific binding of 125I-Tyr-Ala-HEXARELIN ([3]; 100 nM peptide, subject 2): 0.7% of total radioactivity
inhibition of 125I-Tyr-Ala-HEXARELIN specifically bound ([3]; 1000 nM peptide, subject 1): 100%
specific binding of 125I-Tyr-Ala-HEXARELIN ([3]; 1000 nM peptide, subject 1): 0% of total radioactivity
inhibition of 125I-Tyr-Ala-HEXARELIN specifically bound ([3]; 1000 nM peptide, subject 2): 100%
specific binding of 125I-Tyr-Ala-HEXARELIN ([3]; 1000 nM peptide, subject 2): 0% of total radioactivity
IC50 [3, 7]: 7 nM
IC50 [3, 8]: 8.9 nM
IC50 [3, 9]: 5 nM
Dead rats/Total No of rats per group (rat; 5.0 mg/kg i.v. single dose): 0/6
Dead rats/Total No of rats per group (rat; 7.5 mg/kg i.v. single dose): 1/6
Dead rats/Total No of rats per group (rat; 10 mg/kg i.v. single dose): 2/6
toxicity compared (rat; i.v. single dose, rat): less toxic than GHRP-6
GH released (GH release [4]): 104.2 ± 13.1 ng/mL
GH-releasing activity ([5]; 10^-6 M): 558.0 ± 19.1 ng/well
GH-releasing activity ([5]; 10^-7 M): 589.1 ± 17.9 ng/well
GH-releasing activity ([5]; 10^-8 M): 557.8 ± 15.9 ng/well
hydrophobicity [6]: greater hydrophobicity than GHRP-6

Compound: CCNC(=O)[C@@H]1CCCN1C(=O)[C@H](CCCNC(=N)N)NC(=O)[C@H](CC(C)C)NC(=O)[C@@H](Cc1c(C)[nH]c2ccccc12)NC(=O)[C@H](Cc1ccc(O)cc1)NC(=O)[C@H](CO)NC(=O)[C@H](Cc1c[nH]c2ccccc12)NC(=O)[C@H](Cc1c[nH]cn1)NC(=O)[C@@H]1CCC(=O)N1 [Example 3, Pyro-Glu-His-Trp-Ser-Tyr-D-2-alkyl-Trp-Leu-Arg-Pro-NHCH2 CH3]
clinical side effects (plasma testosterone): No clinical side effects were observed
